In experiment [1] the test system is airways of OVA-sensitized mice. Description: OVA-induced allergic airway inflammation in mice (alcian blue mucus staining, airway cross section, CD45 infiltration). Type of experiment: in vivo, mouse. As for the experimental part: Intestinal sections were collected for histological analyses. Mouse airways were fixed by transcardial fixation and were embedded in paraffin or were used as cryosections. For paraffin sections, tissues were fixed in 4% paraformaldehyde (PFA), 0.2% picric acid and 3.4% sucrose in PBS, and were washed in methanol before embedding in paraffin. Sections were stained according to standard Periodic acid-Schiff (PAS) or Alcian Blue methods and assessed by light microscopy.
Mouse models were performed according to the previous example. For investigating mucus, IL-8 release, and leukocytes, tissues were fixed using 4% paraformaldehyde (PFA), 0.2% picric acid and 3.4% sucrose in PBS and washed in methanol before embedding in paraffin. Mucus was analyzed using standard Periodic acid-Schiff (PAS) or alcian blue staining. MUC5AC was stained using anti-MUC5AC mouse antibody (1:200, Abcam, ab3649) and a secondary antibody conjugated with Alexa488 (Life Technologies, A-21206). Nuclei were stained with Hoe33342 (0.1 μg/ml PBS, Aplichem, Darmstadt, Germany). Quantikine ELISA kits (R&D systems) were used to measure secretion of the cytokine IL-8 by Calu3 cells.
All methods were performed as described in the previous examples. Mice were treated with ovalbumin (OVA) to induce an allergic reaction which leads to airway inflammation. […] After allergization with OVA and development of airway inflammation, excessive mucus production and inflammatory infiltration with immune cells is observed. Activation of cholinergic receptors using the muscarinic agonist carbachol (CCH) results in constriction of the airways and secretion of mucus (FIG. 5A-C). 3-day treatment using niclosamide reduced the CCH-induced constriction of the airways (FIG. 1). Furthermore, mucus secretion and inflammatory infiltrates were reduced.
OVA-induced allergic airway inflammation in mice caused pronounced airway goblet cell metaplasia. […] NFA is a well know inhibitor of Ca^2+ activated Cl^− channels and inhibits TMEM16A. The two main TMEM16 paralogs expressed in airway epithelial and smooth muscle cells, TMEM16A and TMEM16F, were expressed in HEK293 cells and the whole cell currents upon activation by the Ca^2+ ionophore ionomycin (Iono) were measured. […] Novel therapeutic strategies for the treatment of inflammatory airway diseases such as CF may therefore consider the use of inhibitors of TMEM16.
The present inventors disclose that airway epithelial knockout of TMEM16A causes a defect in basal, i.e. ATP-mediated mucus secretion. […] Mucus synthesis under inflammatory (OVA) conditions and mucus release upon cholinergic stimulation, however, were not compromised (FIG. 16C). […] Because basal mucus production still occurs in the absence of TMEM16A, other TMEM16 paralogs may also be in charge of mucus synthesis.

Another experiment has as its target T1, TMEM16F (Homo sapiens, UniProt Q4KMQ2).
T1 construct: expressed in transfected cells; host or cells: HEK293 cells
T1 sequence (Q4KMQ2 1-910): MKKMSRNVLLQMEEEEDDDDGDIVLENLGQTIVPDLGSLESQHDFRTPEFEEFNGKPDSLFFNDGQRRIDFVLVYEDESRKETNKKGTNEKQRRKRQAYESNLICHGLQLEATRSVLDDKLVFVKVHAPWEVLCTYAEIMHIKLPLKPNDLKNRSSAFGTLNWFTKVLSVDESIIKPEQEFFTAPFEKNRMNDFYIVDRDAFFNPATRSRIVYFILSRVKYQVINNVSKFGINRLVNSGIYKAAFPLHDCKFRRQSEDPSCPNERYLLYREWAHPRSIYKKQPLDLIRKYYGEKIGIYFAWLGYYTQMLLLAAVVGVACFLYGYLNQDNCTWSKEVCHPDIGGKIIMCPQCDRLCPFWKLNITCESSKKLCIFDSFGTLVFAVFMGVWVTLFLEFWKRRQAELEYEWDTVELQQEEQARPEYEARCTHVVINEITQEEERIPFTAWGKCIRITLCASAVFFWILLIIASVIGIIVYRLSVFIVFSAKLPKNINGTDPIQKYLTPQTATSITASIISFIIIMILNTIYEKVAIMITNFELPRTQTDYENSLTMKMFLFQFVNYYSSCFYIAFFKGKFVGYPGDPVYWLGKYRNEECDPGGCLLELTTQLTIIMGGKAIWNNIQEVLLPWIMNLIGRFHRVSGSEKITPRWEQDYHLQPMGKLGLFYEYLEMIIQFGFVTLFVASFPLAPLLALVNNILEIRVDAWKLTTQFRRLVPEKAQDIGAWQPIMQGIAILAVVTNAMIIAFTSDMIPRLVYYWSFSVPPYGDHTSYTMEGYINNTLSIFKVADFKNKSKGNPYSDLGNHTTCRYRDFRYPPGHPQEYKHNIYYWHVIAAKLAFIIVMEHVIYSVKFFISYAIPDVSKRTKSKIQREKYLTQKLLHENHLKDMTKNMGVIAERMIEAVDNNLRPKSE
Description: Whole cell currents in HEK293 cells expressing TMEM16F (patch clamp). The note with it: overexpressed TMEM16F; niclosamide 1 μM. Format: cell-based. As for the experimental part:
FIG. 14: The TMEM16-inhibitor niflumic acid attenuates inflammatory airway disease. • A,B) OVA-sensitization induced pronounced goblet cell metaplasia as indicated by alcian blue positivity. Exposure to carbachol (CCH, 25 mg/ml, nebulizer) induced release of mucus and airway […]. Bars indicate […]. […] Mean±SEM; *significant inhibition by NFA (paired ttest). # significant difference when compared to OVA (unpaired t-test). (n) number of airways analysed or number of cells examined.
FIG. 15: Inhibition of TMEM16A and TMEM16F by niclosamide. • A) TMEM16A whole cell currents in overexpressing HEK293 cells. […]
OVA-induced allergic airway inflammation in mice caused pronounced airway goblet cell metaplasia. […] The two main TMEM16 paralogs expressed in airway epithelial and smooth muscle cells, TMEM16A and TMEM16F, were expressed in HEK293 cells and the whole cell currents upon activation by the Ca^2+ ionophore ionomycin (Iono) were measured. […]
Similar to TMEM16A, also overexpressed TMEM16F was inhibited by niclosamide (FIG. 15D). […] TMEM16A was activated by ionomycin and TMEM16A currents were measured as iodide quenching.
For orientation: The patch-clamp technique gives a direct electrical read-out from membranes.

Entries after “also recorded” stand apart in the source; their conditions may differ.

Consider `O=C(Nc1ccc([N+](=O)[O-])cc1Cl)c1cc(Cl)ccc1O` [niclosamide, 5-chloro-N-(2-chloro-4-nitrophenyl)-2-hydroxybenzamide], for which the inflammatory infiltrates result in experiment [1] (OVA-allergized mice, 3-day treatment) is listed as “reduced”. Also, in experiment [1] (OVA-allergized mice, 3-day treatment, CCH), the mucus secretion entry is listed as “reduced”. In addition, in experiment [1] (OVA-allergized mice, 3-day treatment, carbachol (CCH)), the “CCH-induced constriction of the airways” value is recorded as “reduces”. Besides, the CCH-induced airway contraction result in experiment [1] (OVA-sensitized TMEM16A+/+ and TMEM16A−/− mice, intratracheal for three days before CCH) was “strongly attenuated”. In addition, in experiment [1] (OVA-sensitized wt (TMEM16A+/+) and TMEM16A−/− mice, intratracheal for three days before CCH), the “mucus synthesis / production” value is on record as “strongly reduced; also recorded: strongly attenuated”. The OVA-induced mucus production result in experiment [1] (wt mice, tracheal instillation, niflumic acid 20 μM or niclosamide 5 μM) was “strongly reduced; also recorded: inhibited mucus production”. Moreover, on TMEM16F, the “TMEM16F current (current/voltage relationship)” value is “inhibited; also recorded: inhibition”.

(Values after patent publication US20210283110A1, “COMPOUND FOR USE IN THE TREATMENT OF A DISEASE CHARACTERIZED BY DYSREGULATED MUCUS PRODUCTION AND/OR SECRETION” (UNIVERSITÄT REGENSBURG, priority 2018, published 2021).)
